# Tests used:
# Conditions in all cases: 72 h
# Caco-2 [1] = test: cell viability relative to DMSO; higher = less toxic
# Calu-3 [2] = test: as above
# HepG2 [3] = test: as above
# U2OS [4] = test: as above
# Vero E6 [5] = test: as above
# Caco-2 [6] = test: relative viability EC50 (midpoint between 100% and the lowest measured viability); higher = less toxic
# Calu-3 [7] = test: as above
# HepG2 [8] = test: as above
# U2OS [9] = test: as above
# Vero E6 [10] = test: as above
# Caco-2 [11] = test: drug sensitivity score (DSS) for viability; higher = more toxic; extreme values may be limits of the assay
# Calu-3 [12] = test: as above
# HepG2 [13] = test: as above
# U2OS [14] = test: as above
# Vero E6 [15] = test: as above
SMILES,cell viability (Caco-2 [1]; 1 nM) [%],cell viability (Caco-2 [1]; 10 nM) [%],cell viability (Caco-2 [1]; 100 nM) [%],cell viability (Caco-2 [1]; 1000 nM) [%],cell viability (Caco-2 [1]; 10000 nM) [%],cell viability (Calu-3 [2]; 1 nM) [%],cell viability (Calu-3 [2]; 10 nM) [%],cell viability (Calu-3 [2]; 100 nM) [%],cell viability (Calu-3 [2]; 1000 nM) [%],cell viability (Calu-3 [2]; 10000 nM) [%],cell viability (HepG2 [3]; 1 nM) [%],cell viability (HepG2 [3]; 10 nM) [%],cell viability (HepG2 [3]; 100 nM) [%],cell viability (HepG2 [3]; 1000 nM) [%],cell viability (HepG2 [3]; 10000 nM) [%],cell viability (U2OS [4]; 1 nM) [%],cell viability (U2OS [4]; 10 nM) [%],cell viability (U2OS [4]; 100 nM) [%],cell viability (U2OS [4]; 1000 nM) [%],cell viability (U2OS [4]; 10000 nM) [%],cell viability (Vero E6 [5]; 1 nM) [%],cell viability (Vero E6 [5]; 10 nM) [%],cell viability (Vero E6 [5]; 100 nM) [%],cell viability (Vero E6 [5]; 1000 nM) [%],cell viability (Vero E6 [5]; 10000 nM) [%],relative viability EC50 (Caco-2 [6]) [µM],relative viability EC50 (Calu-3 [7]) [µM],relative viability EC50 (HepG2 [8]) [µM],relative viability EC50 (U2OS [9]) [µM],relative viability EC50 (Vero E6 [10]) [µM],drug sensitivity score (Caco-2 [11]),drug sensitivity score (Calu-3 [12]),drug sensitivity score (HepG2 [13]),drug sensitivity score (U2OS [14]),drug sensitivity score (Vero E6 [15])
Cc1ccc(S(N)(=O)=O)cc1 [para-toluenesulfonamide],103,99.2,98.1,98.9,100,102,94.8,91.1,91.8,95.9,105,107,110,94.4,120,100,96,97.7,102,104,102,94.6,98.4,99.2,103,> 10,> 10,> 10,> 10,> 10,0,0,0,0,0
CCCC[N+]1(C)[C@@H]2C[C@@H](OC(=O)[C@H](CO)c3ccccc3)C[C@H]1[C@@H]1O[C@@H]12 (stereo not given in full) [butylscopolamine-bromide],92.8,98.3,104,94.7,98.2,110,83.9,99.5,90.9,106,102,106,92.9,102,115,99.1,94.7,101,96.3,99.7,97.4,95.9,96.5,95.6,108,> 10,> 10,> 10,> 10,> 10,0,0,0,0,0
CCCOC(=O)c1ccc(O)cc1 [propyl 4-hydroxybenzoate],92.2,100,102,90.2,109,92.1,95.4,88.7,92.1,102,108,102,107,89,102,102,97.1,100,98.9,102,108,95.9,102,95.3,100,> 10,> 10,> 10,> 10,> 10,0,0,0,0,0
O=C(O)c1ccccc1Nc1cc(Cl)ccc1C(=O)O [lobenzarit],95.9,101,99.1,93.1,98.2,111,88.1,108,95.2,90.3,106,109,95.6,103,105,91.3,96,101,96.9,104,97.7,97.3,86,87.4,114,> 10,> 10,> 10,> 10,> 10,0,0.2,0,0,0
O=S(=O)(/N=C/c1c(O)ccc2ccccc12)c1cccs1,102,95.8,97.4,95.9,103,91.3,99.3,99.8,104,100,100,120,96.8,109,99.9,103,100,98.9,99.5,103,99.9,102,100,106,94.5,> 10,> 10,> 10,> 10,> 10,0,0,0,0,0
CCCC(=O)O[C@]1(C(=O)CO)CC[C@H]2[C@@H]3CCC4=CC(=O)CC[C@]4(C)[C@H]3[C@@H](O)C[C@@]21C [hydrocortisone-butyrate],103,95.2,98.4,104,102,109,101,102,95.8,89.1,95.1,102,93.8,102,101,97,95.8,97.1,95.3,95.6,95.5,99,91.5,102,105,> 10,> 10,> 10,> 10,> 10,0,0.1,0,0,0
S=C(S)OC1CC2CC1C1CCCC21 (stereo not given) [D609],100,99.2,102,105,102,99.3,102,104,103,98,103,98.7,102,100,108,100,106,96.3,102,96.6,98.7,98,102,96,98.5,> 10,> 10,> 10,> 10,> 10,0,0,0,0,0
CO[C@@H](C)Cn1c(=O)n(C)c2cnc3ccc(-c4cncc(C(C)(C)O)c4)cc3c21,97.2,93.4,82.4,35.6,25.9,108,89.8,68,26.9,18,94.4,99.7,95.8,56.9,14.8,108,102,84,25.7,8.3,96.4,101,87.2,54.3,28.9,0.238,0.144,0.974,0.331,0.514,14,17.4,9.8,15.7,10.2
CNCC(O)c1ccc(OC(=O)C(C)(C)C)c(OC(=O)C(C)(C)C)c1 (stereo not given) [dipivefrine],104,94,102,90.4,85,97.9,102,106,96.3,109,97.5,94.1,98.2,97.7,84.3,99.4,95.1,97.3,96.2,97.1,100,100,93.3,98.3,97.4,> 10,> 10,> 10,> 10,> 10,0.9,0,0.5,0,0
FC(F)(F)c1ccc(Nc2ncnc3cc(-c4ncccc4C(F)(F)F)ccc23)cc1 [MK-2295],100,95.8,91.9,83.9,90.6,112,96.9,101,100,81.9,92.7,94.9,91.5,116,98.4,100,95.5,101,98,97.5,99.7,98,98.3,97.8,95.2,> 10,> 10,> 10,> 10,> 10,1.2,0.5,0,0,0
COc1cc2c(cc1OC)[C@@]13CCN4CC5=CCO[C@H]6CC(=O)N2[C@H]1[C@H]6[C@H]5C[C@H]43 [brucine],104,89.9,112,106,91.7,110,101,91.4,98,97.1,109,103,90.2,83.6,96.9,96.8,101,101,96.5,96.9,106,92.3,95.2,99,98.9,> 10,> 10,> 10,> 10,> 10,0,0,2.6,0,0
CC(=O)OCC(=O)[C@@]1(O)CC[C@H]2[C@@H]3CCC4=CC(=O)C=C[C@]4(C)[C@H]3[C@@H](O)C[C@@]21C [prednisolone-acetate],110,108,93.3,106,85.8,99.5,92.3,82.6,87,98.1,107,106,93.1,90.9,114,110,106,100,101,97.8,99.5,106,104,102,94.4,> 10,> 10,> 10,> 10,> 10,0.1,0,0,0,0
O=C(CC12CC3CC(CC(C3)C1)C2)Nc1cccc2nc(NCCNCCO)ccc12,91.2,93.1,93.8,91.8,91.8,99,101,92.1,98.4,94.9,97.5,94.7,93.7,96.8,99.9,96.1,102,95.2,97.9,95.1,96,102,95.8,91.4,100,> 10,> 10,> 10,> 10,> 10,0,0,0,0,0
N=C(C[C@@H](O)COc1ccccc1-c1ccccc1)N1CCCCC1,95.7,100,81.8,96.6,89.5,100,98.2,90.1,104,83.6,92.8,94.5,109,84.4,101,99.9,103,96.8,102,92.8,97.5,102,96.6,96.8,102,> 10,> 10,> 10,> 10,> 10,0,0.2,0,0,0

# — the supplement of paper PMC13380429
